In PMC12040169 (PLOS Biology, 2025):

assay: in vitro; conditions: human, hela cells, % viability

Compared with `CS(=O)(=O)N1CCCc2cc(C(=O)O)ccc21` [CBK287072], `Cc1cccn2cc(-c3ccc4c(c3)CCN4S(C)(=O)=O)cc12` [CBK285226] is higher in viability at 28.5 h, 10 µM: 93% for the first, 95.5% for the second.

Compared with `CCN(CC)c1ccc(C(=O)Cn2c(=O)n(C(=O)CCCc3ccc(OC)cc3)c3ccccc32)cc1` [CBK106503], `CCCc1ccc(N(C)C(=O)c2ccc(C(C)(C)C)cc2)cc1` [CBK161612] is higher in viability at 28.5 h, 10 µM: 89.6% for the first, 103% for the second.

Compared with `CC(C)C(=O)Nc1cc2ccccc2c(-c2cccc(C(F)(F)F)c2)n1` [CBK085738], `Nc1ccccc1Sc1nccc(C(F)(F)F)n1` [CBK006263] is lower in viability at 28.5 h, 10 µM: 95.6% for the first, 94.5% for the second.

First: Cc1cc(N2CCOC(c3nc(C)n[nH]3)C2)c2ccc(F)c(F)c2n1 (centres unmarked) [CBK306018]
Second: Cc1cc(-c2cnc(N)nc2)cc(C2CCCN(S(=O)(=O)c3ccc(F)c(C)c3)C2)n1 (centres unmarked) [CBK285934]
The viability at 28.5 h, 10 µM of the first is lower: 92.2% for the first, 105% for the second.

Going from `OCC[C@H]1CN2CCCC2CN1Cc1cccc(Cl)c1Cl` (some centres unmarked) [CBK285429] to `O=S(=O)(c1ccc(Br)cc1)N1CCCCC1CO` (centres unmarked) [CBK051127], the viability at 28.5 h, 10 µM rises from 86.6% to 116%.

Compared with `CC(Oc1cccc(C#N)c1)C(=O)N1CCSCC1` (centres unmarked) [CBK305748], `CC(NC(=O)CC1(N2CCOCC2)CCCC1)c1cccc(C#N)c1` (centres unmarked) [CBK305320] is higher in viability at 28.5 h, 10 µM: 97% for the first, 106% for the second.

Going from `CCCc1nc(CN2CCN(c3ccc4nncn4n3)CC2)cs1` [CBK305330] to `COc1cc(CN2CCN(C(=O)c3cccnc3)CC2)cc(OC)c1O` [CBK265210G], the viability at 28.5 h, 10 µM falls from 97.7% to 85.2%.

First: Cc1n[nH]c(C)c1CC(=O)NC(Cc1cccs1)c1nccs1 (centres unmarked) [CBK285093]
Second: O=C(Nc1nccs1)c1ncoc1-c1cccs1 [CBK283975]
The viability at 28.5 h, 10 µM of the first is lower: 92.1% for the first, 102% for the second.

Compared with `COc1ccc(-n2c(=O)[nH]c3ncc(-c4ccco4)nc32)c(C)c1` [CBK065019], `COc1cncc(-c2cc(Nc3ccc(O)cc3C)ncn2)c1` [CBK091061] is higher in viability at 28.5 h, 10 µM: 101% for the first, 103% for the second.

First: Cn1ccnc1C1(O)CC2CCC(C1)N2C(=O)NCc1ccccc1 (centres unmarked) [CBK284050]
Second: CC(NC(=O)C1CCN(CCc2ccccc2)CC1)c1ccccc1 (centres unmarked) [CBK148612]
The viability at 28.5 h, 10 µM of the first is lower: 81.3% for the first, 99.6% for the second.

First: Cc1cc(S(=O)(=O)Nc2ccc3[nH]ccc3c2)c(C)o1 [CBK155743]
Second: Cc1ccc(NC(=O)CN(c2ccccc2)S(=O)(=O)c2ccccc2[N+](=O)[O-])cc1C [CBK262345]
The viability at 28.5 h, 10 µM of the first is higher: 71.4% for the first, 57.7% for the second.

Compared with `CC1SC(c2cc3ccccc3o2)N(c2ccc(F)cc2F)C1=O` (centres unmarked) [CBK006917], `Cn1cc(C(=O)Nc2c(F)cc(F)cc2OC2CCNCC2)c2ccccc21` [CBK050328T] is lower in viability at 28.5 h, 10 µM: 107% for the first, 89.1% for the second.

Compared with `CCOc1ccc(-c2ccnc(N3CCCC(C)(O)C3)n2)cc1C(=O)O` (centres unmarked) [CBK307652], `O=C(O)Cn1cnc(-c2ccc(Br)cc2)c1` [CBK262441] is lower in viability at 28.5 h, 10 µM: 117% for the first, 111% for the second.

Compared with `O=C1CCC(C(=O)N2CC3(CCCC3)c3c(F)cccc32)CN1` (centres unmarked) [CBK304914], `O=C(c1cnoc1-c1ccc(F)cc1)N1CCCC1` [CBK153707] is higher in viability at 28.5 h, 10 µM: 85.7% for the first, 97.9% for the second.

Going from `CC(=O)N1C[C@@H]2C[C@H](C1)c1ccc(NS(=O)(=O)c3cccc(F)c3)c(=O)n1C2` [CBK288710] to `CC(=O)Nc1ccc(S(=O)(=O)N2CCN(Cc3ccccc3[N+](=O)[O-])CC2)cc1` [CBK264170], the viability at 28.5 h, 10 µM falls from 105% to 89.3%.

First: COc1cc(C(c2nnnn2C2CCCCC2)N2CCN(C)CC2)cc(OC)c1OC (centres unmarked) [CBK142338C]
Second: Cc1ccc(C)c(-n2nnnc2SC(C)C(=O)N2CCCC2)c1 (centres unmarked) [CBK295204]
The viability at 28.5 h, 10 µM of the first is higher: 98.3% for the first, 79.9% for the second.

Going from `OCCOc1ccccc1OCCO` [CBK260930] to `COC(=O)c1ccc(C)c(N(CCO)CCO)c1` [CBK262418], the viability at 28.5 h, 10 µM rises from 93.6% to 102%.

First: O=C(NC1CC1)[C@H]1CN2CCC1C[C@@H]2Cn1cc(CC2CCCCC2)nn1 (some centres unmarked) [CBK288739]
Second: COc1ccccc1C(=O)NC1CN2CCC1CC2 (centres unmarked) [CBK018475C]
The viability at 28.5 h, 10 µM of the first is higher: 103% for the first, 75.5% for the second.

Compared with `O=C(Nc1cccc(C(F)(F)F)c1)N[C@H]1[C@H](O)[C@@H](N2CCCC2)[C@@H]2OC[C@H]1O2` [CBK288828], `Cc1ccc(NC(=O)C(=O)NCCCN2CCOCC2)cc1Cl` [CBK264806] is lower in viability at 28.5 h, 10 µM: 105% for the first, 97.4% for the second.

First: O=S(=O)(NCCN1CCCC1)c1cccc2nsnc12 [CBK261132]
Second: O=c1cc(N2CCCCC2)cnn1CCCn1cccn1 [CBK306907]
The viability at 28.5 h, 10 µM of the first is higher: 97.3% for the first, 90.1% for the second.

First: O=C(N/N=C/c1cc(Br)c(Br)o1)c1cccc(F)c1 [CBK261688]
Second: CC(=O)NC[C@H]1CN(c2ccc(C3CNC3)c(F)c2)C(=O)O1 [CBK013035]
The viability at 28.5 h, 10 µM of the first is higher: 94.2% for the first, 82.8% for the second.

Compared with `O=C(Nc1ccc(F)cc1)C1CC(=O)n2c(nc3ccccc32)N1` (centres unmarked) [CBK287282], `NS(=O)(=O)c1ccc(NC(=O)CCC2COc3ccccc3O2)cc1` (centres unmarked) [CBK267696] is lower in viability at 28.5 h, 10 µM: 101% for the first, 87.9% for the second.

Compared with `CC(C)NC(=O)[C@@H](C)C1CC[C@@]2(C)CC[C@H](NC(=O)c3cncnc3)[C@@H](C)[C@@H]2[C@H]1O` (some centres unmarked) [CBK289454], `CC(C)(C)C1CCc2onc(C(=O)NCCn3ccnc3)c2C1` (centres unmarked) [CBK281581] is lower in viability at 28.5 h, 10 µM: 103% for the first, 87.1% for the second.

First: C=CCNC(=O)C1C2CCC3(CC(=O)c4cc(Cl)ccc4O3)C21 (centres unmarked) [CBK284873]
Second: COc1cc(OC)cc(C(=O)N2CCC3(CC2)CC(=O)c2ccc(OCCN(C)C)cc2O3)c1 [CBK169008T]
The viability at 28.5 h, 10 µM of the first is lower: 86.3% for the first, 92.8% for the second.

Compared with `CSc1ncc(Cl)c(C(=O)Nc2nc(-c3ccc(S(=O)(=O)N4CCOCC4)cc3)cs2)n1` [CBK269064], `CCC(=O)Nc1ccc(-c2csc(N(C)C)n2)cc1` [CBK304294C] is higher in viability at 28.5 h, 10 µM: 102% for the first, 103% for the second.

First: O=C(Cn1c(-c2cccs2)cc2cccnc21)NCc1ccncc1 [CBK282456]
Second: CCCNC(=O)Cn1c(=O)n(Cc2cccs2)c2ncccc21 [CBK283843]
The viability at 28.5 h, 10 µM of the first is higher: 104% for the first, 101% for the second.

Compared with `CCOC(=O)c1cn([C@H]2CC[C@H](O)CC2)cc(Oc2ccccc2)c1=O` [CBK307565], `O=C(Cc1cccnc1)N1CCC(Cc2ccccc2)CC1` [CBK200183] is lower in viability at 28.5 h, 10 µM: 108% for the first, 97% for the second.

Compared with `CC(=O)Nc1nnc(-c2ccc3c(c2)CCCC3)o1` [CBK287426], `CCOC(=O)c1c(NC(=S)NC(=O)c2cccc(Cl)c2)sc2c1CCCC2` [CBK264045] is higher in viability at 28.5 h, 10 µM: 88% for the first, 88.2% for the second.

Compared with `CNC(=O)C1(Cc2ccc(-c3ccccc3)cc2)CCN(C(=O)COc2ccccc2)CC1` [CBK285766], `Cc1ccccc1NS(=O)(=O)c1ccc(OCC(=O)N2CCN(c3cc(Cl)ccc3C)CC2)cc1` [CBK267649] is higher in viability at 28.5 h, 10 µM: 92.7% for the first, 94.5% for the second.

Compared with `Cc1ccc2c(c1)oc(=O)n2CCNC(=O)CC1c2ccccc2Oc2ccccc21` [CBK286194], `CN(C)C(=O)CSc1nnc(-c2cccc3ccccc23)n1-c1ccccc1` [CBK266044] is lower in viability at 28.5 h, 10 µM: 94.8% for the first, 92% for the second.

First: COc1ccc(Oc2ccc(C=Cc3nc4sc(C(=O)O)c(C)c4c(=O)[nH]3)cc2[N+](=O)[O-])cc1 [CBK295637]
Second: Nc1ccc(C(=O)Oc2ccc(Oc3ccccc3)cc2)cc1 [CBK083570]
The viability at 28.5 h, 10 µM of the first is higher: 112% for the first, 90.5% for the second.

Going from `Cn1nc(CC(=O)Nc2ccccc2C(=O)O)c2ccccc2c1=O` [CBK286558] to `Cc1cc(NC(=O)c2cscn2)c2ccccc2n1` [CBK116275], the viability at 28.5 h, 10 µM falls from 88.9% to 85.6%.

First: Cc1nn(C)cc1-c1c(C#N)c(N)nc2c1CN(Cc1ccco1)CC2 [CBK306722]
Second: Cc1nn(C)cc1CN(Cc1ccccc1)CC1CCCO1 (centres unmarked) [CBK283264]
The viability at 28.5 h, 10 µM of the first is lower: 90.4% for the first, 94.4% for the second.

First: O=C(c1ccccc1F)N1CCN(C2CCN(Cc3ccccc3)CC2)CC1 [CBK263404]
Second: c1ccc(-c2ccccc2CN2CCN(c3nccnc3OCCN3CCOCC3)CC2)cc1 [CBK082893T]
The viability at 28.5 h, 10 µM of the first is higher: 93.3% for the first, 90.7% for the second.

Going from `CN(C)c1cccc(C2CCCN2c2nc3c(cnn3C)c(=O)[nH]2)c1` (centres unmarked) [CBK305220] to `CC(=O)N1C[C@@H](N(C)C)[C@H](c2cn(C)c3ccccc23)C1` [CBK285007], the viability at 28.5 h, 10 µM rises from 78.6% to 99.5%.

Compared with `CC(=O)c1ccc(C(=O)N(C)Cc2ccc(F)cc2)s1` [CBK296660], `CC(=O)c1ccc(-c2ccc(C(=O)NCC3COc4ccccc4O3)c(N(C)C(C)=O)n2)s1` (centres unmarked) [CBK076637] is higher in viability at 28.5 h, 10 µM: 99.8% for the first, 114% for the second.

Going from `CCN(CC)C(=O)N1CCC(c2ccncc2)CC1` [CBK283503] to `Cc1csc2c(C3CCN(C(=O)c4ccncc4)CC3)nc(C)n12` [CBK285243], the viability at 28.5 h, 10 µM falls from 101% to 84.4%.

Compared with `CSc1nc(C(=O)NC2CCCN(c3ncccn3)C2)cs1` (centres unmarked) [CBK307198], `Cc1csc2c(C3CCN(C(=O)c4cccnc4)CC3)nc(C)n12` [CBK285242] is lower in viability at 28.5 h, 10 µM: 98.7% for the first, 85.1% for the second.

Compared with `CC(C)Nc1cc(OCCCc2ccncc2)ncn1` [CBK115886], `CC(C)Nc1nc2ccccc2nc1OCCC#N` [CBK115735] is lower in viability at 28.5 h, 10 µM: 104% for the first, 103% for the second.

First: Cc1cc(C(=O)Nc2c(C)noc2C)n[nH]1 [CBK200395]
Second: Cc1cc2c(cc3c(=O)n(CC(=O)NC4CC4)nc(C)n32)s1 [CBK284067]
The viability at 28.5 h, 10 µM of the first is higher: 87.4% for the first, 74.3% for the second.

Compared with `CCN(CC)C(=O)CN(CCc1ccc(OC)c(OC)c1)C(=O)NCCN1CCOCC1` [CBK158734], `N#CCCCN1CCC2(CC1)CN(C(=O)CO)c1ccccc12` [CBK137007] is lower in viability at 28.5 h, 10 µM: 93.1% for the first, 86% for the second.

First: O=C(c1ccccc1)c1ccc(NC(=O)c2ccccc2F)c(NC(=O)c2ccccc2F)c1 [CBK265183]
Second: O=C(O)c1ccc(-c2ccc(/C=C3/NC(=O)N(c4ccc(Cl)cc4)C3=O)o2)cc1 [CBK077970]
The viability at 28.5 h, 10 µM of the first is lower: 93.2% for the first, 103% for the second.

First: CN(C)CCN(C)c1cc(-c2ccc(F)c(Cl)c2)nc2ccnn12 [CBK037230]
Second: CC(C)(C)c1cc(C(=O)NCc2ccccn2)n(Cc2ccc(Cl)cc2Cl)n1 [CBK107288]
The viability at 28.5 h, 10 µM of the first is lower: 90.4% for the first, 101% for the second.

First: CSc1nc(C)c(CCC(=O)Nc2ccc(N3CC(C)OC(C)C3)nc2)c(C)n1 (centres unmarked) [CBK298266]
Second: O=C(c1ccc2ccccc2n1)N1CCc2ccccc21 [CBK200404]
The viability at 28.5 h, 10 µM of the first is lower: 87.4% for the first, 94% for the second.

`O=C(O)CSc1nc2ccccc2n1CC(=O)O` [CBK267128] showed a viability at 28.5 h, 10 µM of 102%.
